Results on 12 compounds are retold here after patent publication US20040242886A1, “Monocyclic diazodioxide based Bcl-2 protein antagonists related applications” (priority 2003, published 2004).

Like-named read-outs stand apart in the source and are kept apart here.

One series deals with cell. Particulars: cited from earlier work.
The next series deals with Bcl-2 and Bcl XL. Particulars: literature value, cited from earlier work.
For series [1], the system named is A549 human lung cells expressing low Bcl-2 and high Bcl-XL levels. The experiment in a line: Acute cytotoxicity (apoptotic activity), Alamar Blue viability, A549 cells. The format is cell-based. Here is the method: (§1) The biological activity of the compounds provided herein were assessed in cellular system by the method similar to the one described by Amundson et al. (Amundson, S. A. et al, Cancer Research 2000, 60, 6101-6110), which is incorporated herein by reference in its entirety. The compounds were tested for acute cytotoxicity (apoptotic activity) using two human cancer cell lines expressing high levels of either Bcl-2 or BCl-XL. HL60, human leukemic cells expressing high Bcl-2 and low BCl-XL levels, and A549 human lung cells expressing low Bcl-2 and high BCl-XL levels, were incubated with the compounds at concentrations between 0.5 and 1000 μg/mL for 4 hours at 37° C., 5% CO2. The number of viable cells were measured by mitochondrial transformation of Alamar Blue to a fluorescent dye. LC50 values for each test compound and controls are provided in the individual examples that follow.
(§2) The compounds provided herein were tested for acute cytoxicity (apoptotic activity) using two human cancer cell lines expressing high levels of either Bcl-2 or BCl-XL. HL-60 cells expressing high Bcl-2 and low Bcl-XL levels, and A549 human lung cells expressing low Bcl-2 and high Bcl-XL levels were incubated with the compounds provided herein at concentrations between 0.5 and 1000 μg/mL for 4 hours at 37° C., 5% CO2. The number of viable cells were measured by mitochondrial transformation of Alamar Blue to a fluorescent dye. As negative controls, the compounds were tested against the cell lines with low levels of Bcl-2 expression, viz., MDA-453 cells. LC50 values for each compound and controls were determined.
For orientation: Resazurin is reduced to fluorescent resorufin, in cell work by metabolically active cells.

The test system of series [2] is HL60, human leukemic cells expressing high Bcl-2 and low Bcl-XL levels. The experiment in a line: Acute cytotoxicity (apoptotic activity), Alamar Blue viability, HL-60 cells. The class given is cell-based. How it is done: as §1, §2
Where [3] appears, read: Homo sapiens, A549, 4 h, read-out: LC 50 (μM) A549.
The mark [4] stands for this setting: Homo sapiens, HL-60, 4 h, read-out: LC 50 (μM) HL-60.

On to `CCCC[C@H]1C(=O)O[C@H](C)[C@H](NC(=O)c2cccc(NC=O)c2O)C(=O)O[C@@H](C)[C@@H]1OC(=O)CC(C)C` [compound 2], for which, in the series with cell, the CC50 was 1.2 µM. As for `Cc1cc2c(C(C)C)c(O)c(O)c(C=O)c2c(O)c1-c1c(C)cc2c(C(C)C)c(O)c(O)c(C=O)c2c1O` [compound 1], the CC50 in the series with cell was 1.5 µM. As a reminder, the IC50 is the concentration needed to halve the response being measured. `CC(C)Cc1cc(-c2ccc(-c3ccc(OCC(=O)O)c(CC(C)C)c3)c(Cc3cccc4ccccc34)c2)ccc1CCC(=O)O` [compound 7]: the IC50 with Bcl-2 and Bcl XL (Bcl-2 antagonist) is 0.114 µM. Consider `O=C(Nc1cc(S(=O)(=O)c2ccc(Cl)cc2)ccc1Cl)c1cc(Cl)cc(I)c1O` [compound 6, reference compound], for which the CC50 is around 30 µM in the series on cell (read-out: LC50 (cell), cell line not specified, literature value); above 200 µM in series [1] (setting [3]); below 50 µM in series [2] (setting [4]). In the series with Bcl-2 and Bcl XL (protein not specified), the IC50 is 3.3 µM. Turning to `[O-][n+]1nc(Oc2ccccc2)ccc1Oc1ccccc1` [Example 2, 3,6-diphenoxvpyridazine-1-oxide], the CC50 is above 500 µM in series [1] (4 hours at 37° C., read-out: LC50 value in A549 cell lines) and above 500 µM in series [2] (4 hours at 37° C., read-out: LC50 value in HL-60 cell lines). Regarding `O=S(=O)(c1ccc(S(=O)(=O)C2CCCCC2)[n+]([O-])n1)C1CCCCC1` [compound 20], the figures for the CC50 in series [1] (setting [3]) and in series [2] (setting [4]) were above 200 µM and below 50 µM, respectively. For the compound `O=S(=O)(c1ccc(Cl)c[n+]1[O-])C1CCCCC1` [compound 37], the CC50 in series [1] (setting [3]) and in series [2] (setting [4]) was above 200 µM throughout. For `O=S(=O)(c1ccc(Sc2ccccc2)n[n+]1[O-])C1CCCCC1` [compound 30], the CC50 in series [1] (setting [3]) and in series [2] (setting [4]) was above 200 µM throughout. As to `CCCCS(=O)(=O)c1ccc(S(=O)(=O)CCCC)[n+]([O-])n1` [compound 24], the CC50 is above 200 µM in series [1] (setting [3]) and 50 to 200 µM in series [2] (setting [4]). The matching figures for `CC(C)(C)S(=O)(=O)c1ccc(S(=O)(=O)C(C)(C)C)[n+]([O-])n1` [compound 25]: above 200 µM and 50 to 200 µM.

Take `[O-][n+]1nc(Sc2ccccn2)ccc1Sc1ccccn1` [compound 7, reference compound]: the CC50 in series [1] (setting [3]) and in series [2] (setting [4]) was above 200 µM in each case. With `[O-][n+]1nc(Cl)ccc1SC1CCCCC1` [compound 26], the CC50 in series [1] (setting [3]) and in series [2] (setting [4]) was above 200 µM in each case.
